ChEMBL document CHEMBL5291721, “A preclinical secondary pharmacology resource illuminates target-adverse drug reaction associations of marketed drugs” (Nat Commun, 2023)

Key:
[1] = target: Voltage-gated inwardly rectifying potassium channel KCNH2 (Homo sapiens, UniProt Q12809); type: functional
[2] = target: T1, Alpha-1A adrenergic receptor (Homo sapiens, UniProt P35348); type: functional, cell-based
T1 sequence (P35348 whole entry): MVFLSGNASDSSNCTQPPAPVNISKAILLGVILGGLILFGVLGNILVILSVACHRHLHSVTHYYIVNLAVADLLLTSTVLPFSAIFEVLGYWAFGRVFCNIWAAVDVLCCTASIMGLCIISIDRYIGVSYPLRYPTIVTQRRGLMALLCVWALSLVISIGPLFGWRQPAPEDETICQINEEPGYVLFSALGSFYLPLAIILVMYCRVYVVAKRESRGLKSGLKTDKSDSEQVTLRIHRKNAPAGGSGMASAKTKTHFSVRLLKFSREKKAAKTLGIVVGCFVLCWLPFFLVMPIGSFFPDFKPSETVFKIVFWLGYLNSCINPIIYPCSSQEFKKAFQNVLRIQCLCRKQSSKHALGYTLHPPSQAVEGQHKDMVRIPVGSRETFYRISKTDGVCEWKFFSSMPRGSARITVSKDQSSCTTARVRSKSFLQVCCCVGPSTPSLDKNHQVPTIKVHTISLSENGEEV

[3] = target: T2, Alpha-2A adrenergic receptor (Homo sapiens, UniProt P08913)
T2 sequence (P08913 whole entry): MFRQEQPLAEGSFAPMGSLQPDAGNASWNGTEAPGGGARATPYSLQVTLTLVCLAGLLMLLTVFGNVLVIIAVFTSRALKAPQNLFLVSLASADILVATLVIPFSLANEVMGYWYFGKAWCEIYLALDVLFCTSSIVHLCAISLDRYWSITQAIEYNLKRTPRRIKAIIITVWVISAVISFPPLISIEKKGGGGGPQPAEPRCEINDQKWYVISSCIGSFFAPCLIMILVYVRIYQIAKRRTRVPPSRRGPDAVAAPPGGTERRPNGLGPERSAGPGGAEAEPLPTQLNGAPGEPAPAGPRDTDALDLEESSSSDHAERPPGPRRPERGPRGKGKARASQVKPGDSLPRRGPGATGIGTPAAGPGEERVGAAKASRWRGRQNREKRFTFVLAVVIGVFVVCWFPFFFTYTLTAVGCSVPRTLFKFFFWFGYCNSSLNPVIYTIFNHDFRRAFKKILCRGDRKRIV

Prothrombin = Prothrombin (Homo sapiens, UniProt P00734); type: functional
[4] = target: T3, 5-hydroxytryptamine receptor 1A (Homo sapiens, UniProt P08908)
T3 sequence (P08908 whole entry): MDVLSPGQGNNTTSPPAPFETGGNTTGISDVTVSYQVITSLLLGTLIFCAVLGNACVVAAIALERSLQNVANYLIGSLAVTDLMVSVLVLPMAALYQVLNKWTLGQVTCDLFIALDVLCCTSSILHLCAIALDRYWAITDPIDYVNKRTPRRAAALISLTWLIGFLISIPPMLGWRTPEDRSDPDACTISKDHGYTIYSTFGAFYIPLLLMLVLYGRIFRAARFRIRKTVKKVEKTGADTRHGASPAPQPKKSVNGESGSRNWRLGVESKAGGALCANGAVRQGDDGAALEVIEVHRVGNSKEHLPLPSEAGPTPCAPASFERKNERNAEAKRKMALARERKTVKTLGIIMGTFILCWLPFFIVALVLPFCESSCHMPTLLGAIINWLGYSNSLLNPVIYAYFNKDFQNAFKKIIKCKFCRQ

[5] = target: 5-hydroxytryptamine receptor 2B (Homo sapiens, UniProt P41595); type: functional, cell-based
5-hydroxytryptamine receptor 2B, sequence (P41595 whole entry): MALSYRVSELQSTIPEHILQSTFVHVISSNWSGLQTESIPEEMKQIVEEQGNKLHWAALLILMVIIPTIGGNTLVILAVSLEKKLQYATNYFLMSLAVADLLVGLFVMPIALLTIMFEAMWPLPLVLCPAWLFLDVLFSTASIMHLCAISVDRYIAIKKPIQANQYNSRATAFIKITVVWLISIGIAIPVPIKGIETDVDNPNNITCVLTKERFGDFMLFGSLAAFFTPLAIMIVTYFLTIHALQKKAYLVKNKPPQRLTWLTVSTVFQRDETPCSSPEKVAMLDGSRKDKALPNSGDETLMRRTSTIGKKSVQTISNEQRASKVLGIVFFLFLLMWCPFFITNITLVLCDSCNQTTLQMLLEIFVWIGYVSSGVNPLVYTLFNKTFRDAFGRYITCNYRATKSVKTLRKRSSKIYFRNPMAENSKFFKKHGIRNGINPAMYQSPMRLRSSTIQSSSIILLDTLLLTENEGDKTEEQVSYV

[6] = target: T4, Amine oxidase [flavin-containing] A (Homo sapiens, UniProt P21397); type: functional
T4 sequence (P21397 whole entry): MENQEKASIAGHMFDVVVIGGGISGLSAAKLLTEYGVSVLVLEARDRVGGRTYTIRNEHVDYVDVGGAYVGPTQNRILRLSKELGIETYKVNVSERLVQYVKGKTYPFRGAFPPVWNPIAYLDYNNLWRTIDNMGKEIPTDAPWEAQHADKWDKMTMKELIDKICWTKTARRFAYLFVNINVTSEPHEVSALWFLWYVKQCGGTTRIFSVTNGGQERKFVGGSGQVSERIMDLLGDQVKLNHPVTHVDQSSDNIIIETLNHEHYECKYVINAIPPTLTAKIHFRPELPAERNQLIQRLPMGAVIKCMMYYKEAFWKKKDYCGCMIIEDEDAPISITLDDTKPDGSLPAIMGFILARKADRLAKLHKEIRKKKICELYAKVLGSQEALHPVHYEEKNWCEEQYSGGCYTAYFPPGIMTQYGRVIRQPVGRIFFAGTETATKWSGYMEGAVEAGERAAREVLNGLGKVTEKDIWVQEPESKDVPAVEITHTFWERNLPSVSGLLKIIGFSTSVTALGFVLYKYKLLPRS

[7] = target: cGMP-inhibited 3',5'-cyclic phosphodiesterase 3A (Homo sapiens, UniProt Q14432); type: functional
cGMP-inhibited 3',5'-cyclic phosphodiesterase 3A, sequence (Q14432 whole entry): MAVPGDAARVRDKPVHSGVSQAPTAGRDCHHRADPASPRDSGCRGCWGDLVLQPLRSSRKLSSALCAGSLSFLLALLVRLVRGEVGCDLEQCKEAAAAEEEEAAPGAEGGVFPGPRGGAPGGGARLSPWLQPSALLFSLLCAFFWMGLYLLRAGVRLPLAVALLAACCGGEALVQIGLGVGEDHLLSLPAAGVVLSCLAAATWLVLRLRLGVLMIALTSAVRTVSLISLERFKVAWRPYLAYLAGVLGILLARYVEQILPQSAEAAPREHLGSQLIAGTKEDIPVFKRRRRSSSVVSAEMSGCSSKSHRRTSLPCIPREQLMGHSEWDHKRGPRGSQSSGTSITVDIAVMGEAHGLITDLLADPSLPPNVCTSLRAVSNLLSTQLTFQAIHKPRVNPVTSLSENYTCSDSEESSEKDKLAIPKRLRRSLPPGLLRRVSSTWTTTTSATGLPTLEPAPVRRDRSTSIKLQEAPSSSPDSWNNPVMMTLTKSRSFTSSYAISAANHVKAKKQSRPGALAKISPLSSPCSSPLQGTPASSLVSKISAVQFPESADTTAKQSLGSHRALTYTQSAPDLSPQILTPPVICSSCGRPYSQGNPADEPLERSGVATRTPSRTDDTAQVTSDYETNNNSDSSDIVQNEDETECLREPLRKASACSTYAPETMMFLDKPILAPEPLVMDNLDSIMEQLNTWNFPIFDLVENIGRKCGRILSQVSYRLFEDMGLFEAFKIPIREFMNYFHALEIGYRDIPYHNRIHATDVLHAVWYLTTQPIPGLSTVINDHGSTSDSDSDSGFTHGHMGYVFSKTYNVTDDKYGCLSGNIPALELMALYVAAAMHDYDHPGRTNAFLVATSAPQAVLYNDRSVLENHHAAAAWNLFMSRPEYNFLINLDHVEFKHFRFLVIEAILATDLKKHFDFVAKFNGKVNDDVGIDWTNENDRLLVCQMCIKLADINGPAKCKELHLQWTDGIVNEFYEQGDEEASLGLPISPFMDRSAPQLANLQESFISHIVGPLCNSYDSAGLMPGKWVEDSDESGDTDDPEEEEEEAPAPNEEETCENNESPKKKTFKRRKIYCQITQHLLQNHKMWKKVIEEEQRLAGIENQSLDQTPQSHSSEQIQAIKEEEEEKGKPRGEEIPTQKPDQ

[8] = target: 3',5'-cyclic-AMP phosphodiesterase 4A (Homo sapiens, UniProt P27815); type: functional
3',5'-cyclic-AMP phosphodiesterase 4A, sequence (P27815 whole entry): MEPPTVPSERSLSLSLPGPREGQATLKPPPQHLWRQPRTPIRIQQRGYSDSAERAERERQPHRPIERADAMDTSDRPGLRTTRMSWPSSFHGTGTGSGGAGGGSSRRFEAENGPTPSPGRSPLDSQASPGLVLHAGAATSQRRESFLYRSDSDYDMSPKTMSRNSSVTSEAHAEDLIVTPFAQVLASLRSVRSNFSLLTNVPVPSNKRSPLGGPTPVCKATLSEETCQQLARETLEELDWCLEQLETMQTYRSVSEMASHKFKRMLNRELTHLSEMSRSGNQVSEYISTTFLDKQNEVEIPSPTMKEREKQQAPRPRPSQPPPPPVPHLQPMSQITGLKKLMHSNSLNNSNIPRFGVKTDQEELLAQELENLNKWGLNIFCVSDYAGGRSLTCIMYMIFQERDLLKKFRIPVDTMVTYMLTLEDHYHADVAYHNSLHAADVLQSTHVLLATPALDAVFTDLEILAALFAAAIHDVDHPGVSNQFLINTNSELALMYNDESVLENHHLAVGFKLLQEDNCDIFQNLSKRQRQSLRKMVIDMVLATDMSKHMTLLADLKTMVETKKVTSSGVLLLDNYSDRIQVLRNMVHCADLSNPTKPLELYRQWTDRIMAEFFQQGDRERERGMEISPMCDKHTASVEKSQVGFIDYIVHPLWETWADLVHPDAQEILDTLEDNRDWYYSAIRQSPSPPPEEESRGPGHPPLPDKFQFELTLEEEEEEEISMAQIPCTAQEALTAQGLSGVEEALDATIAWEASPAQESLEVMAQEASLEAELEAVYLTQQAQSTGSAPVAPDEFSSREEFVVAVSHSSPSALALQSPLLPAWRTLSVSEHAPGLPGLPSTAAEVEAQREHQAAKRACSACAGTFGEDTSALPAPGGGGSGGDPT

Thromboxane A2 receptor [9] = target: T5, Thromboxane A2 receptor (Homo sapiens, UniProt P21731); type: functional, cell-based
T5 sequence (P21731 whole entry): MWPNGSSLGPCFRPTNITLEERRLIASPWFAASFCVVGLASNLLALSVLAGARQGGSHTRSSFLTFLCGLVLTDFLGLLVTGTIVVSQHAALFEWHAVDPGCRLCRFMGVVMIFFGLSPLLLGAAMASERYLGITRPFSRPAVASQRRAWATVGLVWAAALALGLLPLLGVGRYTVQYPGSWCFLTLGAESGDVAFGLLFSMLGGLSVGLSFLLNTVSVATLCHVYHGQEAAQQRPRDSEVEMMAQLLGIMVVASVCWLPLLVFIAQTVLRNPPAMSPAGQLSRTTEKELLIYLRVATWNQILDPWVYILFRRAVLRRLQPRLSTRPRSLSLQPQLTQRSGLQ

Thromboxane A2 receptor [10] = target: T5, Thromboxane A2 receptor; type: functional, cell-based; remark: listed apart in the source
Also: assay procedure not described here.

Voltage-gated inwardly rectifying potassium channel KCNH2, sequence (Q12809 whole entry): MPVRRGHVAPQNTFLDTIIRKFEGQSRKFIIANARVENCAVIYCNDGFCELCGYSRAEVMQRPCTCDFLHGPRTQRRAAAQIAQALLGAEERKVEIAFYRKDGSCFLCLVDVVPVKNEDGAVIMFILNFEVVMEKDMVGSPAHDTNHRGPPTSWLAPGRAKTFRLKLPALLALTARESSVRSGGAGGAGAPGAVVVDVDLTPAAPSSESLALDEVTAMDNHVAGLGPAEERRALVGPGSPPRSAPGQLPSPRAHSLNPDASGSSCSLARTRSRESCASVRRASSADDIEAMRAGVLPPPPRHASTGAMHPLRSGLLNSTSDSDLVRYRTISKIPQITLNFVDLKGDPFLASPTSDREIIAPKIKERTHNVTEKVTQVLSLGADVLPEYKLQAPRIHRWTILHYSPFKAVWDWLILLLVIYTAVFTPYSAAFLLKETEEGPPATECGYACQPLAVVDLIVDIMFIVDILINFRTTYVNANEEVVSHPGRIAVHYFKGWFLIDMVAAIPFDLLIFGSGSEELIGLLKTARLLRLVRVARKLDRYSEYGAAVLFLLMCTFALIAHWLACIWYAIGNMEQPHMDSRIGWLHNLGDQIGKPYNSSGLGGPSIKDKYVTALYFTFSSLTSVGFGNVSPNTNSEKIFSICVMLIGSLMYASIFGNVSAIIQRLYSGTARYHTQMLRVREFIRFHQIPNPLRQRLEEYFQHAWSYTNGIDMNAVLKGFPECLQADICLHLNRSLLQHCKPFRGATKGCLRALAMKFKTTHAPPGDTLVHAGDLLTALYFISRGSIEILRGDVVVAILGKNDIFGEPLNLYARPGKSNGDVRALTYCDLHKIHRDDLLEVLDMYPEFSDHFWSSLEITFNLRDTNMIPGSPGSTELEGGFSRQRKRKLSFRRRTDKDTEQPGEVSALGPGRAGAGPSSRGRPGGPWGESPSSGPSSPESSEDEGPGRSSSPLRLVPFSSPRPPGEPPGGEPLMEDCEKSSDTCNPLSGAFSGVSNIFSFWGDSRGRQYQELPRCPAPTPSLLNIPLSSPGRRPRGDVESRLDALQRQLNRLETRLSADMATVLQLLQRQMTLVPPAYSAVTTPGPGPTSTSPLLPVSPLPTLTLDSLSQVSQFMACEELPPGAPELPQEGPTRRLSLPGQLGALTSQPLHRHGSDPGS

Compound	AC50 ([1]; human, cellular components) [µM]	AC50 [2] [µM]	AC50 [3] [µM]	AC50 (Prothrombin) [µM]	AC50 [4] [µM]	AC50 [5] [µM]	AC50 [6] [µM]	AC50 [7] [µM]	AC50 [8] [µM]	AC50 (Thromboxane A2 receptor [9]) [µM]	AC50 (Thromboxane A2 receptor [10]) [µM]	AC50 ([1]; read-out: AC50) [µM]
HYDROXOCOBALAMIN	> 30	–	–	–	–	–	–	–	–	–	–	–
Nc1ccc(S(N)(=O)=O)cc1 [SULFANILAMIDE]	–	> 30	> 30	> 30	> 30	> 30	> 30	> 30	> 30	> 30	> 30	–
CN(C)c1ccc(C(=C2C=CC(=[N+](C)C)C=C2)c2ccc(N(C)C)cc2)cc1 [GENTIAN VIOLET]	–	> 30	1.43	25.2	4.24	> 30	> 30	> 30	13.2	> 30	2.03	1
